target: PI3Kα (Homo sapiens (Human), UniProt P42336); assay: ADP-Glo Kinase Assay, PI3Kα enzyme activity inhibition; conditions: not given
Sequence (P42336 whole entry): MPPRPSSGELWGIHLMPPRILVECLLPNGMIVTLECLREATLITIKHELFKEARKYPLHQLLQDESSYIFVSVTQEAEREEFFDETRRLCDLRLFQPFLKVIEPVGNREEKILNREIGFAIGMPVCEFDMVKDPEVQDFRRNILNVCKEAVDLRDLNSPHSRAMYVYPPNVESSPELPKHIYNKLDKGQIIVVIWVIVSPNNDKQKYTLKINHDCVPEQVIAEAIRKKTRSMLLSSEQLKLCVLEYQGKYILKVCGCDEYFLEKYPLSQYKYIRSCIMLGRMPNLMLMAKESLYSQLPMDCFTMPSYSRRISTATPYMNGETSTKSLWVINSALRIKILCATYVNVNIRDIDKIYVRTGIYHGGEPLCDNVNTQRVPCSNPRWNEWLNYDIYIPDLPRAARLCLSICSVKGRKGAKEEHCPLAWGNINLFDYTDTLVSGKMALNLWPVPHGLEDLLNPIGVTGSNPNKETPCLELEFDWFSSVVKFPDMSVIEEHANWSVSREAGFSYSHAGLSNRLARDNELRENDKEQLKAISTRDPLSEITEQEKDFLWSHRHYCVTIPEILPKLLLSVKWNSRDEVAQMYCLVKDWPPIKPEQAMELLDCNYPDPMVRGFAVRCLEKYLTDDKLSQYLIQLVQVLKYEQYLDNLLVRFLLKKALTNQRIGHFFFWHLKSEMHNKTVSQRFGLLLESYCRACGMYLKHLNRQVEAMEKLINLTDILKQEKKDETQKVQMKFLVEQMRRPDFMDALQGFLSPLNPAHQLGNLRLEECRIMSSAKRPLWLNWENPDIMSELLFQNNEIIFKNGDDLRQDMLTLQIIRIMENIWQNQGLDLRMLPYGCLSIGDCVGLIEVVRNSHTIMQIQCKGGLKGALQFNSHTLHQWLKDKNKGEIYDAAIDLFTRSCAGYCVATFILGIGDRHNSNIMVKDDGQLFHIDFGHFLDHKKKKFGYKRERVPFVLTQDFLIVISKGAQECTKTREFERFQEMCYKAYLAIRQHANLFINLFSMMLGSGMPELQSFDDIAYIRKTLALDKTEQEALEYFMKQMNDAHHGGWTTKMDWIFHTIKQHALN
Sequence (P27986 whole entry partner): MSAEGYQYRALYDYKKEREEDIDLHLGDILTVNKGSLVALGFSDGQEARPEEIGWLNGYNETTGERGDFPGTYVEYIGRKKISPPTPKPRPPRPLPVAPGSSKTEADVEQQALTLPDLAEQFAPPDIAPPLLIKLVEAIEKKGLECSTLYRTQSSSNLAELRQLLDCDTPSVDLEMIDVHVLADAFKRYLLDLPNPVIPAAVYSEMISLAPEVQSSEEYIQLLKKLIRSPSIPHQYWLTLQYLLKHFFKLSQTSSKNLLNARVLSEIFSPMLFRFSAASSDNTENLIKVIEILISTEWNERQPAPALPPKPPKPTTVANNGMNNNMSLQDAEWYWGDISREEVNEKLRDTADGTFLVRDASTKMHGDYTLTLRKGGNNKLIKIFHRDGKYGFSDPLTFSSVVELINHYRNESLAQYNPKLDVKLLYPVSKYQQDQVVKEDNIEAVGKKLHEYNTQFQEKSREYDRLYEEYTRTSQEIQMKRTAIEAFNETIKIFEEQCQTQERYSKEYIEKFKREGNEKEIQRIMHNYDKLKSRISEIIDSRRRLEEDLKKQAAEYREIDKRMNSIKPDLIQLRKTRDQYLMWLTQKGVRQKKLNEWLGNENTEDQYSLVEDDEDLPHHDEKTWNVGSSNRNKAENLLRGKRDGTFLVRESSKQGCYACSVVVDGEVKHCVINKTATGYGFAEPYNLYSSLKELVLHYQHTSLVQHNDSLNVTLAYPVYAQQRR

Row | Compound | PI3Kaα IC50
1 | CCn1nc2ccc(NC(=O)c3cc(F)cc(C(F)(F)F)c3)c3c2c1C(=O)NC3c1cc(F)ccc1Cl (stereo not shown) [YL115] | +++ (key: +represents IC50<=250 nM; ++ represents 250 nM<IC50<=10 μM; +++ represents IC50>10 μM)
2 | CC(C)n1nc2ccc(NC(=O)c3cc(F)cc(C(F)(F)F)c3)c3c2c1C(=O)NC3c1cc(F)ccc1Cl (stereo not shown) [YL118] | ++ (key: +represents IC50<=250 nM; ++ represents 250 nM<IC50<=10 μM; +++ represents IC50>10 μM)

same assay, conditions: ADP-Glo; ATP 25 μM; PIP2 50 μg/mL; 1 hour at room temperature

Row | Compound | PI3Kaα IC50
3 | C[C@H](O)C(=O)Nc1cc(NC(=O)c2cc(F)cc(C(F)(F)F)c2)c2c3c1CCN3C(=O)NC2c1cc(F)ccc1Cl (stereo partly shown) [YL030] | +++ (+++ represents IC50>10 μM)
4 | O=C(Nc1cc(F)cc(C(F)(F)F)c1)Nc1cc(Br)c2c3c1C(c1cc(F)ccc1Cl)NC(=O)N3CC2 (stereo not shown) [YL122] | +++ (+++ represents IC50>10 μM)
5 | O=C(Nc1cc(-c2ccn[nH]2)c2c3c1C(c1cc(F)ccc1Cl)NC(=O)N3CC2)c1cc(F)cc(C(F)(F)F)c1 (stereo not shown) [YL054] | ++ (++ represents 250 nM<IC50<=10 μM)
6 | O=C(Nc1cc(-c2ccc3ncnn3c2Br)c2c3c1C(c1cc(F)ccc1Cl)NC(=O)N3CC2)c1cc(F)cc(C(F)(F)F)c1 (stereo not shown) [YL139] | +++ (+++ represents IC50>10 μM)
7 | [N-]=[N+]=Nc1cc(NC(=O)c2cc(F)cc(C(F)(F)F)c2)c2c3c1CCN3C(=O)NC2c1cc(F)ccc1Cl (stereo not shown) [YL011] | ++ (++ represents 250 nM<IC50<=10 μM)
8 | Cc1ncc(-c2cc(NC(=O)c3cc(F)cc(C(F)(F)F)c3)c3c4c2CCN4C(=O)NC3c2cc(F)ccc2Cl)[nH]1 (stereo not shown) [YL067] | +++ (+++ represents IC50>10 μM)
9 | O=C(Nc1cc(N2CC(F)(F)C2)c2c3c1C(c1cc(F)ccc1Cl)NC(=O)N3CC2)c1cc(F)cc(C(F)(F)F)c1 (stereo not shown) [YL012] | ++ (++ represents 250 nM<IC50<=10 μM)
10 | O=C(Nc1cc(-c2c(C(F)(F)F)n[nH]c2C2CC2)c2c3c1C(c1cc(F)ccc1Cl)NC(=O)N3CC2)c1cc(F)cc(C(F)(F)F)c1 (stereo not shown) [YL048] | ++ (++ represents 250 nM<IC50<=10 μM)
11 | N#Cc1c(N)cccc1-c1cc(NC(=O)c2cc(F)cc(C(F)(F)F)c2)c2c3c1CCN3C(=O)NC2c1cc(F)ccc1Cl (stereo not shown) [YL133] | +++ (+++ represents IC50>10 μM)
12 | O=C(Nc1cc(-c2ccc3ncnn3c2)c2c3c1C(c1cc(F)ccc1Cl)NC(=O)N3CC2)c1cc(F)cc(C(F)(F)F)c1 (stereo not shown) [YL128] | +++ (+++ represents IC50>10 μM)
13 | O=C(Nc1cc(NC(=O)C(F)(F)F)c2c3c1C(c1cc(F)ccc1Cl)NC(=O)N3CC2)c1cc(F)cc(C(F)(F)F)c1 (stereo not shown) [YL009] | ++ (++ represents 250 nM<IC50<=10 μM)
14 | N#Cc1ccc(-c2cc(NC(=O)c3cc(F)cc(C(F)(F)F)c3)c3c4c2CCN4C(=O)NC3c2cc(Cl)ccc2Cl)c(N)n1 (stereo not shown) [YL130] | +++ (+++ represents IC50>10 μM)
15 | Nc1n[nH]c2ccc(-c3cc(NC(=O)c4cc(F)cc(C(F)(F)F)c4)c4c5c3CCN5C(=O)NC4c3cc(F)ccc3Cl)cc12 (stereo not shown) [YL013] | ++ (++ represents 250 nM<IC50<=10 μM)
16 | Cn1cc(-c2cc(NC(=O)c3cc(F)cc(C(F)(F)F)c3)c3c4c2CCN4C(=O)NC3c2cc(F)ccc2Cl)cn1 (stereo not shown) [YL015] | ++ (++ represents 250 nM<IC50<=10 μM)
17 | O=C(Nc1cc(NC2COC2)c2c3c1C(c1cc(F)ccc1Cl)NC(=O)N3CC2)c1cc(F)cc(C(F)(F)F)c1 (stereo not shown) [YL027] | ++ (++ represents 250 nM<IC50<=10 μM)
18 | C#Cc1c(-c2cc(NC(=O)c3cc(F)cc(C(F)(F)F)c3)c3c4c2CCN4C(=O)NC3c2cc(F)ccc2Cl)ccc2ncnn12 (stereo not shown) [YL140] | +++ (+++ represents IC50>10 μM)
19 | O=C(Nc1cc(Nc2cnn(C3CCOCC3)c2)c2c3c1C(c1cc(F)ccc1Cl)NC(=O)N3CC2)c1cc(F)cc(C(F)(F)F)c1 (stereo not shown) [YL023] | ++ (++ represents 250 nM<IC50<=10 μM)
20 | N#Cc1cc(N)ncc1-c1cc(NC(=O)c2cc(F)cc(C(F)(F)F)c2)c2c3c1CCN3C(=O)NC2c1cc(F)ccc1Cl (stereo not shown) [YL152] | +++ (+++ represents IC50>10 μM)
21 | C#Cc1cc(NC(=O)c2cc(F)cc(C(F)(F)F)c2)c2c3c1CCN3C(=O)NC2c1cc(F)ccc1Cl (stereo not shown) [YL069] | +++ (+++ represents IC50>10 μM)
22 | Cn1nc2c(-c3cn[nH]c3F)cc(NC(=O)c3cc(F)cc(C(F)(F)F)c3)c3c2c1C(=O)NC3c1cc(F)ccc1Cl (stereo not shown) [YL113] | +++ (+++ represents IC50>10 μM)

Row | Compound | PI3Kaα IC50
23 | N#Cc1n[nH]cc1-c1cc(NC(=O)c2cc(F)cc(C(F)(F)F)c2)c2c3c1CCN3C(=O)NC2c1cc(F)ccc1Cl (stereo not shown) [YL126] | +++ (+++ represents IC50>10 μM)
24 | O=C(Nc1cc(F)c2c3c1C(c1cc(F)ccc1Cl)NC(=O)N3CC2)c1cc(F)cc(C(F)(F)F)c1 (stereo not shown) [YL021] | ++ (++ represents 250 nM<IC50<=10 μM)
25 | N#Cc1c(N)cccc1-c1cc(NC(=O)c2cc(F)cc(C(F)(F)F)c2)c2c3c1CCN3C(=O)NC2c1cc(Cl)ccc1Cl (stereo not shown) [YL132] | +++ (+++ represents IC50>10 μM)
26 | N#Cc1cc(NC(=O)c2cc(F)cc(C(F)(F)F)c2)c2c3c1CCN3C(=O)NC2c1cc(Cl)ccc1Cl (single isomer, unassigned) [YL101-P2] | +++ (+++ represents IC50>10 μM)
27 | Nc1cc(-c2cc(NC(=O)c3cc(F)cc(C(F)(F)F)c3)c3c4c2CCN4C(=O)NC3c2cc(F)ccc2Cl)[nH]n1 (stereo not shown) [YL053] | ++ (++ represents 250 nM<IC50<=10 μM)
28 | N#Cc1cc2ncnn2cc1-c1cc(NC(=O)c2cc(F)cc(C(F)(F)F)c2)c2c3c1CCN3C(=O)NC2c1cc(F)ccc1Cl (stereo not shown) [YL153] | +++ (+++ represents IC50>10 μM)
29 | O=C(Nc1cc(-c2cn[nH]c2C(F)(F)F)c2c3c1C(c1cc(F)ccc1Cl)NC(=O)N3CC2)c1cc(F)cc(C(F)(F)F)c1 (stereo not shown) [YL071] | ++ (++ represents 250 nM<IC50<=10 μM)
30 | N#Cc1ccc(-c2cc(NC(=O)c3cc(F)cc(C(F)(F)F)c3)c3c4c2CCN4C(=O)NC3c2cc(F)ccc2Cl)c(N)n1 (stereo not shown) [YL134] | +++ (+++ represents IC50>10 μM)
31 | O=C1NC(c2cc(F)ccc2Cl)c2c(Nc3nccc4c(C(F)(F)F)cc(F)cc34)ccc3c2N1CC3 (stereo not shown) [YL050] | ++ (++ represents 250 nM<IC50<=10 μM)
32 | N#Cc1nc(F)ncc1-c1cc(NC(=O)c2cc(F)cc(C(F)(F)F)c2)c2c3c1CCN3C(=O)NC2c1cc(F)ccc1Cl (stereo not shown) [YL143] | +++ (+++ represents IC50>10 μM)
33 | O=C(Nc1cc(NC2CCOCC2)c2c3c1C(c1cc(F)ccc1Cl)NC(=O)N3CC2)c1cc(F)cc(C(F)(F)F)c1 (stereo not shown) [YL028] | ++ (++ represents 250 nM<IC50<=10 μM)
34 | Cc1n[nH]c(C(F)(F)F)c1-c1cc(NC(=O)c2cc(F)cc(C(F)(F)F)c2)c2c3c1CCN3C(=O)NC2c1cc(F)ccc1Cl (stereo not shown) [YL072] | ++ (++ represents 250 nM<IC50<=10 μM)
35 | O=C1NC(c2cc(F)ccc2Cl)c2c(Nc3nccc4c(C(F)(F)F)cc(F)cc34)cc(Br)c3c2N1CC3 (stereo not shown) [YL042] | ++ (++ represents 250 nM<IC50<=10 μM)
36 | O=C(Nc1cc(NC2CC2)c2c3c1C(c1cc(F)ccc1Cl)NC(=O)N3CC2)c1cc(F)cc(C(F)(F)F)c1 (stereo not shown) [YL022] | ++ (++ represents 250 nM<IC50<=10 μM)
37 | Nc1cc(NC(=O)c2cc(F)cc(C(F)(F)F)c2)c2c3c1CCN3C(=O)NC2c1cccc2ccccc12 (stereo not shown) [YL060] | +++ (+++ represents IC50>10 μM)
38 | O=C(Nc1cc(-c2cnc3[nH]cnc3c2Cl)c2c3c1C(c1cc(F)ccc1Cl)NC(=O)N3CC2)c1cc(F)cc(C(F)(F)F)c1 (stereo not shown) [YL147] | +++ (+++ represents IC50>10 μM)
39 | O=C1NC(c2cc(F)ccc2Cl)c2c(Nc3ncnc4c(Cl)cc(F)cc34)ccc3c2N1CC3 (stereo not shown) [YL052] | +++ (+++ represents IC50>10 μM)
40 | N#Cc1ncncc1-c1cc(NC(=O)c2cc(F)cc(C(F)(F)F)c2)c2c3c1CCN3C(=O)NC2c1cc(F)ccc1Cl (stereo not shown) [YL141] | +++ (+++ represents IC50>10 μM)
41 | O=C(Nc1cc(Br)c2c3c1C(c1ccccc1Cl)NC(=O)N3CC2)c1cc(F)cc(C(F)(F)F)c1 (stereo not shown) [YL066] | +++ (+++ represents IC50>10 μM)

same assay, conditions: PI3Kaα IC50

Row | Compound | IC50
42 | Nc1cc(NC(=O)c2cc(F)cc(C(F)(F)F)c2)c2c3c1CCN3C(=O)NC2c1cc(F)ccc1C(F)(F)F (stereo not shown) [YL096] | 0.25 to 10 µM

same assay, conditions: PI3Kaα IC50, ADP-Glo; ATP 25 μM; PIP2 50 μg/mL; 1 hour at room temperature

Row | Compound | IC50
43 | Nc1cc(-c2nc3cc(Cl)ccc3[nH]2)c2c3c1CCN3C(=O)NC2c1cc(F)ccc1Cl (stereo not shown) [YL099] | 0.25 to 10 µM
44 | Nc1cc(-c2nc3cc(Cl)c(Cl)cc3[nH]2)c2c3c1CCN3C(=O)NC2c1cc(F)ccc1Cl (stereo not shown) [YL100] | 0.25 to 10 µM
45 | Nc1cc(-c2nc3c(F)cc(C(F)(F)F)cc3[nH]2)c2c3c1CCN3C(=O)NC2c1cc(F)ccc1Cl (stereo not shown) [YL092] | 0.25 to 10 µM
46 | N=C(N)Nc1cc(NC(=O)c2cc(F)cc(C(F)(F)F)c2)c2c3c1CCN3C(=O)NC2c1cc(F)ccc1Cl (stereo not shown) [YL088] | 0.25 to 10 µM
47 | N#Cc1cc(NC(=O)c2cc(F)cc(C(F)(F)F)c2)c2c3c1CCN3C(=O)NC2c1cc(Cl)ccc1Cl (single isomer, unassigned) [YL101-P1] | > 10 µM
48 | N#Cc1c(-c2cc(NC(=O)c3cc(F)cc(C(F)(F)F)c3)c3c4c2CCN4C(=O)NC3c2cc(Cl)ccc2Cl)ccc2ncnn12 (single isomer, unassigned) [YL109-P2] | > 10 µM
49 | Cn1nc2c(C#N)cc(NC(=O)c3cc(F)cc(C(F)(F)F)c3)c3c2c1C(=O)NC3c1cc(F)ccc1Cl (single isomer, unassigned) [YL102-P2] | > 10 µM
50 | N#Cc1c(-c2cc(NC(=O)c3cc(F)cc(C(F)(F)F)c3)c3c4c2CCN4C(=O)NC3c2cc(F)ccc2Cl)ccc2ncnn12 (single isomer, unassigned) [YL108-P2] | > 10 µM
51 | Nc1cc(Nc2nccc3c(C(F)(F)F)cc(F)cc23)c2c3c1CCN3C(=O)NC2c1cc(F)ccc1Cl (stereo not shown) [YL086] | 0.25 to 10 µM
52 | O=C(Nc1cc(Br)c2c3c1C(c1cc(F)ccc1Cl)NC(=O)N3CC2)c1cc(F)cc(C(F)(F)F)c1 (single isomer, unassigned) [YL079-P2] | 0.25 to 10 µM
53 | O=C(Nc1cc(-c2c[nH]cn2)c2c3c1C(c1cc(F)ccc1Cl)NC(=O)N3CC2)c1cc(F)cc(C(F)(F)F)c1 (stereo not shown) [YL074] | 0.25 to 10 µM
54 | Cn1nc2c(C#N)cc(NC(=O)c3cc(F)cc(C(F)(F)F)c3)c3c2c1C(=O)NC3c1cc(Cl)ccc1Cl (single isomer, unassigned) [YL111-P2] | > 10 µM
55 | O=C(Nc1cc(Br)c2c3c1C(c1cc(F)ccc1Cl)NC(=O)N3CC2)c1cc(F)cc(C(F)(F)F)c1 (single isomer, unassigned) [YL079-P1] | > 10 µM
